US11414413B2, “Heterocyclic compound as JAK inhibitor, and salts and therapeutic use thereof” (Suzhou Longbiotech Pharmaceuticals Co., Ltd., priority 2016, dated 2022)

Columns and labels:
Wistar rats = assay: Effect of repeated administration on hematological parameters in rats; type: in vivo, rat
Experimental: 48 healthy Wistar rats were taken, half ♀ and half ♂. According to the body weight, they were randomly divided into the control group (Veh). The compound of Example 3 was administered by gavage at doses of 1.5 mg·kg^−1·d^−1 and 4.5 mg·kg^−1·d^−1. Ruxolitinib was administered by gavage at dose of 4.5 mg·kg^−1·d^−1. There were 12 rats in each group, half ♀ and half ♂. The drug was administered by gavage once a day for 4 weeks, and the hematological parameters were examined 1 day and 2 days after the last administration.

JAK2 = JAK2 (Homo sapiens (Human), UniProt O60674); assay: Inhibition of JAK2, luminescence kinase assay (ADP-Glo); type: biochemical; conditions: purified recombinant JAK2
Sequence of JAK2 (O60674 whole entry): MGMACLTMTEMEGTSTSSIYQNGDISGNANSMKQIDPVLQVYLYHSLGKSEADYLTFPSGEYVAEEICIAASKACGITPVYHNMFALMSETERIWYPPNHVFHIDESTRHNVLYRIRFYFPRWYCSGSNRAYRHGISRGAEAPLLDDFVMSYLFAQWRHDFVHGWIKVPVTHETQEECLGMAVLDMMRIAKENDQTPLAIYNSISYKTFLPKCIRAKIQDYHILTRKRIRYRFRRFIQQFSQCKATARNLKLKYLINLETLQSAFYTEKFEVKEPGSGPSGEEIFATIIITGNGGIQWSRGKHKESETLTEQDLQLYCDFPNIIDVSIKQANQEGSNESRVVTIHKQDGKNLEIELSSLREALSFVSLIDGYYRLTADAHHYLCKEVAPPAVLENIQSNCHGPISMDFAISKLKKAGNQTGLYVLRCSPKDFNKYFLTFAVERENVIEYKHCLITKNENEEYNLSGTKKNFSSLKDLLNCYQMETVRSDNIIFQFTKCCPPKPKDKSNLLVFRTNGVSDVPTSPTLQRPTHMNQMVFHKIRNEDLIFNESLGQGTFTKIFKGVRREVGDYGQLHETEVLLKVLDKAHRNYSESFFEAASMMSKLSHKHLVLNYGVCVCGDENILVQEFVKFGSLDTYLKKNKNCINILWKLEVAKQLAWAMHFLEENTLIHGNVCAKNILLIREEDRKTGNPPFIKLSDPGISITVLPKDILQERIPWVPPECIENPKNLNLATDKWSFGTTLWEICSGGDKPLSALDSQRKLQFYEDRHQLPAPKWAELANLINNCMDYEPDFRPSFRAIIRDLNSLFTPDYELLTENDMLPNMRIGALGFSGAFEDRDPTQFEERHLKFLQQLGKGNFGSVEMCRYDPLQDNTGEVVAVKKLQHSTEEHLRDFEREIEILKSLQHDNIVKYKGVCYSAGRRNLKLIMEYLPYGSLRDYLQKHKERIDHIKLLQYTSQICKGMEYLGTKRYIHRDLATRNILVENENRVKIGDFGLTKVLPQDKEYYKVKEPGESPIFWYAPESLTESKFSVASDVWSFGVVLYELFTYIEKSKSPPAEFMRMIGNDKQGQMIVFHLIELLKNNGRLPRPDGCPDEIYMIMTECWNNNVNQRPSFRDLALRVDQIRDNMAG
Experimental: (§1) The study of the effect of compounds on the activity of purified recombinant JAK was performed by studying the inhibitory activity of the compounds on JAK from the enzymatic level. The experimental principle is to use a luminescence kinase assay to detect the ADP content produced by the reaction of JAK with the substrate Poly (4:1 Glu, Tyr) peptide: after ADP is converted to ATP, ATP can act as a substrate for the Ultra-Glo luciferase catalytic reaction, producing an optical signal. The luminescence signal is positively correlated with the amount of ADP and kinase activity. Therefore, the inhibitory effect of the compounds on the recombinant JAK was determined by observing the luminescence signal produced by the reaction of JAK and the substrate, and was expressed by IC50.
(§2) Experimental method: 10 different concentrations of compounds were incubated with JAK1, JAK2 and JAK3, respectively, for 60 minutes at 37° C. The substrate and ATP were then added, mixed, and reacted at 37° C. for 50 minutes. 25 μl of ADP-Glo™ was added and mixed for 2 minutes. The reaction was carried out for 50 minutes at room temperature. Further, 50 μl of the detection reagent was added and mixed for 2 minutes, and incubated at room temperature for 50 minutes, and detected by a chemiluminometer.

JAK3 = JAK3 (Homo sapiens (Human), UniProt P52333); assay: Inhibition of JAK3, luminescence kinase assay (ADP-Glo); type: biochemical; conditions: purified recombinant JAK3
Sequence of JAK3 (P52333 whole entry): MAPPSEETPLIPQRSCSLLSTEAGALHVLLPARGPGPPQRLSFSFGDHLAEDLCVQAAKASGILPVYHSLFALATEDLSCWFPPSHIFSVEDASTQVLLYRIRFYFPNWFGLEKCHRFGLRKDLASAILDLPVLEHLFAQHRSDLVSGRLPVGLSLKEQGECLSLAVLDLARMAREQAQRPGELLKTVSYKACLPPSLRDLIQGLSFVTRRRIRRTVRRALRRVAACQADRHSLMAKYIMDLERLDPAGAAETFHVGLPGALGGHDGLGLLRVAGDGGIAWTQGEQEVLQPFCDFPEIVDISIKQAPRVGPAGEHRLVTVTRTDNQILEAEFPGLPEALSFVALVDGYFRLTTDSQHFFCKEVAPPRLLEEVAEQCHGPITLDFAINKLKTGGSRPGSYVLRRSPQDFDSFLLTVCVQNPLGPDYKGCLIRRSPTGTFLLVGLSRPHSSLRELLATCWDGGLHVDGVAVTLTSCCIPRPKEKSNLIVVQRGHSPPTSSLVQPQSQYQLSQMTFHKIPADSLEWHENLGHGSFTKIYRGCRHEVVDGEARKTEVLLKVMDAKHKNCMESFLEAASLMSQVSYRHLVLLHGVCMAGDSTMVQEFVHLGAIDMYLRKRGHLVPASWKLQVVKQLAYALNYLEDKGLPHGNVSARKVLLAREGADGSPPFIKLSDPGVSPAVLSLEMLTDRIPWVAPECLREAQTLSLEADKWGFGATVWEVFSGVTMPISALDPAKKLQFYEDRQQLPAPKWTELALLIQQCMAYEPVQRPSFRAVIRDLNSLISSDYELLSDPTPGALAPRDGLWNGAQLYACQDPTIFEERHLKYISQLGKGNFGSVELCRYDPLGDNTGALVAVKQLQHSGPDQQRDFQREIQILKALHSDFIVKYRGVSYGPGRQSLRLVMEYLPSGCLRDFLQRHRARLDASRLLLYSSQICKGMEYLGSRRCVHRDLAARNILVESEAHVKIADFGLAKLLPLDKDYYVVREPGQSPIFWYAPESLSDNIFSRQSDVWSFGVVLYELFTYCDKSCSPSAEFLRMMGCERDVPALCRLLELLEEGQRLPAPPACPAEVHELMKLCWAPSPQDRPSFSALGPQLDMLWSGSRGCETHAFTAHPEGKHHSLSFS
Experimental: as §1, §2

JAK1 = JAK1 (Homo sapiens (Human), UniProt P23458); assay: Inhibition of JAK1, luminescence kinase assay (ADP-Glo); type: biochemical; conditions: purified recombinant JAK1
Sequence of JAK1 (P23458 whole entry): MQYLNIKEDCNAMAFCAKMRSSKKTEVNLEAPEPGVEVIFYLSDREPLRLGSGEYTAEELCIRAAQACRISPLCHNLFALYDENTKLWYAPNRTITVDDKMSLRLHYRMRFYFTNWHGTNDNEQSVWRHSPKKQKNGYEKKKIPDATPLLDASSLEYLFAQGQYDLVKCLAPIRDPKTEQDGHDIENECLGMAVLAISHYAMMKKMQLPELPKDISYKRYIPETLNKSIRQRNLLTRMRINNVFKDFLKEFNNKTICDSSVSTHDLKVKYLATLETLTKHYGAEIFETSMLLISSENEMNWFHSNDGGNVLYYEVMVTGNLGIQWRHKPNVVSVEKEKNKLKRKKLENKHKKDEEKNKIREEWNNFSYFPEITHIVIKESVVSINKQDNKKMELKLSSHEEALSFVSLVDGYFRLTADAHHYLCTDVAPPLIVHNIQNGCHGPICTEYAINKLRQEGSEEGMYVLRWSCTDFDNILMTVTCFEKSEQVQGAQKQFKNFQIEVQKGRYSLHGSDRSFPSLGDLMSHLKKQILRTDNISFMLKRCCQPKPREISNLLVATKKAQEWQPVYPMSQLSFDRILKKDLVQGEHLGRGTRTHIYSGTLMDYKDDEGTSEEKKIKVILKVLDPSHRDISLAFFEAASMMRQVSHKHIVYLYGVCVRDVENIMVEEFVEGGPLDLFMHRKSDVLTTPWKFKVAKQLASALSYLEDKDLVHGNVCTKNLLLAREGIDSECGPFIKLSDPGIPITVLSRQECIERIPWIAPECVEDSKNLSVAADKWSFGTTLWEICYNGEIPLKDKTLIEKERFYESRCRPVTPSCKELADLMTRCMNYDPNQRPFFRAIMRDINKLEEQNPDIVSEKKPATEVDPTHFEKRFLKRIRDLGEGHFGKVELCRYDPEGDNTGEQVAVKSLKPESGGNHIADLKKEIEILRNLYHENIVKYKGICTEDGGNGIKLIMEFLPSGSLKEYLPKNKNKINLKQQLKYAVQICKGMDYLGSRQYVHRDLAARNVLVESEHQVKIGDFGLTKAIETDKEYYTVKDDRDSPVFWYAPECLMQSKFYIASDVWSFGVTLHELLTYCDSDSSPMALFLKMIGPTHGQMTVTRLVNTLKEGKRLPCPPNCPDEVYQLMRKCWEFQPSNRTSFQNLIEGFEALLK
Experimental: as §1, §2

[1] = gavage 4.5 mg·kg−1·d−1 once a day for 4 weeks

Row | SMILES | hematological parameter WBC compared with the control group (Veh) (Wistar rats; gavage 1.5 mg·kg−1·d−1 once a day for 4 weeks) | hematological parameter WBC compared with the control group (Veh) (Wistar rats; [1]) | IC50 (JAK2) [nM] | IC50 (JAK3) [nM] | IC50 (JAK1) [nM]
1 | N#CCC1(n2cc(-c3ncnc4[nH]ccc34)cn2)CCS(=O)(=O)CC1 [Example 3, 2-(4-(4-(7H-pyrrolo[2,3-d]pyrimidin-4-yl)-1H-pyrazol-1-yl)-1,1-dioxotetrahydro-2H-thiopyran-4-yl)acetonitrile] | no significant decrease | no significant decrease | 20 to 50 |  | 
2 | CS(=O)(=O)N1CCC(CC(=O)NCC(F)(F)F)(n2cc(-c3ccnc4[nH]ccc34)cn2)CC1 [Example 24, 2-(4-(4-(7H-pyrrolo[2,3-b]pyridin-4-yl)-1H-pyrazol-1-yl)-1-(methylsulfonyl)piperidin-4-yl)-N-(2,2,2-trifluoroethyl)acetamide] |  |  | > 50 | > 50 | 20 to 50
3 | O=C(CC1(n2cc(-c3ccnc4[nH]ccc34)cn2)CCCC1)NCC(F)(F)F [Example 27, 2-(1-(4-(1H-pyrrolo[2,3-b]pyridin-4-yl)-1H-pyrazol-1-yl)cyclopentyl)-N-(2,2,2-trifluoroethyl) acetamide] |  |  | > 50 | > 50 | 20 to 50
4 | CC(C)(CC(=O)NCC(F)(F)F)n1cc(-c2c[nH]c3ncccc23)cn1 [Example 28, 3-(4-(1H-pyrrolo[2,3-b]pyridin-3-yl)-1H-pyrazol-1-yl)-3-methyl-N-(2,2,2-trifluoroethyl)butanamide] |  |  | 20 to 50 | > 50 | > 50
5 | CC(C)(CC(=O)NCC(F)(F)F)n1cc(-c2ncnc3[nH]ccc23)cn1 [Example 29] |  |  | 20 to 50 | < 20 | > 50
6 | O=C(NCC(F)(F)F)C1(Nc2ccnc(-c3c[nH]c4ncccc34)n2)CN(S(=O)(=O)C2CC2)C1 [Example 33, 3-((2-(1H-pyrrolo[2,3-b]pyridin-3-yl)pyrimidin-4-yl)amino)-1-(cyclopropylsulfonyl)-N-(2,2,2-trifluoroethyl)azetidin-3-carboxamide] |  |  | > 50 | 20 to 50 | > 50
7 | O=C(NCC(F)(F)F)C1(Nc2nc(-c3c[nH]c4ncccc34)ncc2F)CN(S(=O)(=O)C2CC2)C1 [Example 36] |  |  | > 50 | 20 to 50 | > 50
8 | CS(=O)(=O)N1CCC(Nc2ccnc(-c3c[nH]c4ncccc34)n2)(C(=O)NCC(F)(F)F)CC1 [Example 37, 4-((2-(1H-pyrrolo[2,3-b]pyridin-3-yl)pyrimidin-4-yl)amino)-1-(methylsulfonyl)-N-(2,2,2-trifluoroethyl)piperidin-4-carboxamide] |  |  | > 50 | 20 to 50 | > 50
9 | O=C(NCC(F)(F)F)C1(Nc2ccnc(-c3c[nH]c4ncccc34)n2)CCN(S(=O)(=O)C2CC2)CC1 [Example 39, 4-((2-(1H-pyrrolo[2,3-b]pyridin-3-yl)pyrimidin-4-yl)amino)-1-(cyclopropylsulfonyl)-N-(2,2,2-trifluoroethyl)piperidin-4-carboxamide] |  |  | > 50 | 20 to 50 | > 50
10 | O=C(NCC(F)(F)F)C1(Nc2nc(-c3c[nH]c4ncccc34)ncc2F)CCN(S(=O)(=O)C2CC2)CC1 [Example 42, 4-((5-fluoro-2-(1H-pyrrolo[2,3-b]pyridin-3-yl)pyrimidin-4-yl)amino)-1-(cyclopropylsulfonyl)-N-(2,2,2-trifluoroethyl)piperidin-4-carboxamide] |  |  | 20 to 50 | 20 to 50 | > 50
11 | CCS(=O)(=O)N1CC(C#N)(Nc2ccnc(-c3c[nH]c4ncccc34)n2)C1 [Example 45, 3-((2-(1H-pyrrolo[2,3-b]pyridin-3-yl)pyrimidin-4-yl)amino)-1-(ethylsulfonyl) azetidine-3-carbonitrile] |  |  | 20 to 50 | 20 to 50 | > 50
12 | CCS(=O)(=O)N1CC(C#N)(Nc2ccnc(-c3ncnc4[nH]ccc34)n2)C1 [Example 46, 3-((2-(7H-pyrrolo[2,3-d]pyrimidin-4-yl)pyrimidin-4-yl)amino)-1-(ethylsulfonyl)azetidine-3-carbonitrile] |  |  | > 50 | > 50 | > 50
13 | CS(=O)(=O)N1CC(C#N)(Nc2ccnc(-c3c[nH]c4ncccc34)n2)C1 [Example 48, 3-((2-(1H-pyrrolo[2,3-b]pyridin-3-yl)pyrimidin-4-yl)amino)-1-(methylsulfonyl) azetidine-3-carbonitrile] |  |  | > 50 | > 50 | > 50
14 | CS(=O)(=O)N1CC(C#N)(Nc2ccnc(-c3ncnc4[nH]ccc34)n2)C1 [Example 49, 3-((2-(7H-pyrrolo[2,3-d]pyrimidin-4-yl)pyrimidin-4-yl)amino)-1-(methylsulfonyl) azetidine-3-carbonitrile] |  |  | > 50 | 20 to 50 | > 50
15 | CS(=O)(=O)N1CC(C#N)(Nc2ccnc(-c3ccnc4[nH]ccc34)n2)C1 [Example 50, 3-((2-(1H-pyrrolo[2,3-b]pyridin-4-yl)pyrimidin-4-yl)amino)-1-(methylsulfonyl) azetidine-3-carbonitrile] |  |  | > 50 | > 50 | > 50
16 | N#CC1(Nc2ccnc(-c3c[nH]c4ncccc34)n2)CCS(=O)(=O)CC1 [Example 51, 4-((2-(1H-pyrrolo[2,3-b]pyridin-3-yl)pyrimidin-4-yl)amino)tetrahydro-2H-thiopyran-4-carbonitrile 1,1-dioxide] |  |  | > 50 | 20 to 50 | > 50
17 | N#CC1(Nc2ccnc(-c3ncnc4[nH]ccc34)n2)CCS(=O)(=O)CC1 [Example 52, 4-((2-(7H-pyrrolo[2,3-d]pyrimidin-4-yl)pyrimidin-4-yl)amino)tetrahydro-2H-thiopyran-4-carbonitrile 1,1-dioxide] |  |  | > 50 | > 50 | > 50
18 | N#CC1(Nc2ccnc(-c3ccnc4[nH]ccc34)n2)CCS(=O)(=O)CC1 [Example 53, 4-((2-(1H-pyrrolo[2,3-b]pyridin-4-yl)pyrimidin-4-yl)amino)tetrahydro-2H-thiopyran-4-carbo nitrile 1,1-dioxide] |  |  | > 50 | 20 to 50 | > 50
19 | N#CC1(Nc2ccnc(-c3ccnc4[nH]ccc34)n2)CCC1 [Example 56, 1-((2-(1H-pyrrolo[2,3-b]pyridin-4-yl)pyrimidin-4-yl)amino)cyclobutanecarbonitrile] |  |  | > 50 | > 50 | > 50
20 | N#CC1(Nc2ccnc(-c3c[nH]c4ncccc34)n2)CCCC1 [Example 57, 1-((2-(1H-pyrrolo[2,3-b]pyridin-3-yl)pyrimidin-4-yl)amino)cyclopentanecarbonitrile] |  |  | > 50 | 20 to 50 | > 50
21 | N#CC1(Nc2ccnc(-c3ncnc4[nH]ccc34)n2)CCCC1 [Example 58, 1-((2-(7H-pyrrolo[2,3-d]pyrimidin-4-yl)pyrimidin-4-yl)amino)cyclopentanecarbonitrile] |  |  | > 50 | > 50 | > 50
22 | N#CC1(Nc2ccnc(-c3ccnc4[nH]ccc34)n2)CCCC1 [Example 59, 1-((2-(1H-pyrrolo[2,3-b]pyridin-4-yl)pyrimidin-4-yl)amino)cyclopentanecarbonitrile] |  |  | > 50 | 20 to 50 | > 50
23 | CC[C@](C)(C#N)Nc1ccnc(-c2c[nH]c3ncccc23)n1 [Example 60] |  |  | > 50 | 20 to 50 | > 50
24 | CC[C@](C)(C#N)Nc1ccnc(-c2ncnc3[nH]ccc23)n1 [Example 61] |  |  | > 50 | > 50 | > 50
25 | CC[C@](C)(C#N)Nc1ccnc(-c2ccnc3[nH]ccc23)n1 [Example 62] |  |  | > 50 | > 50 | > 50
26 | N#CC[C@H](C1CCCC1)n1cc(-c2ncnc3[nH]ccc23)cn1 [Ruxolitinib, reference compound] |  | significant decrease |  |  | 
